Test [1] addresses T1, p300 (CH1 domain, residues 330–420) (Homo sapiens, UniProt Q09472).
T1 construct: GST (N, cleaved yes); made in house; host or cells: E. coli BL21 pLysS (pGEX-4T1-p300)
The experiment in a line: ITC of expressed HIF-1α, CITED2 and CITIF peptides binding to p300. As to conditions: ITC, expressed peptides, conditions as Fig. S6 (40 mM sodium phosphate, pH 7.5, 100 mM NaCl, 1 mM DTT, 35°C). Here is the method: We hypothesized that it would be possible to enhance the affinity of HIF-1α for p300 by hybridising key regions of both CITED2 and HIF-1α (see later). We first measured the affinity of the parent peptides. A particular difficulty in comparing these peptide sequences is the different length used in different studies.[28,33,35,36] […]
data and fitted thermogram (lower) (40 mM sodium phosphate, pH 7.5 100 mM NaCl, 1 mM DTT buffer using 5 µM protein in the cell and 60 µM ligand in the syringe at 35°C); (b) Thermodynamic signatures for each interaction. […]
(§1) Isothermal titration calorimetry
(§2) Prior to ITC measurement p300 CH1 was dialysed or run on S75 column in the buffer used for titration, and the same buffer was used to dissolve the pure peptides. Experiments with […]
(§3) MicroCal iTC200 instrument with 10 µM protein in the cell and 100 µM ligand in the syringe at 37°C, using 2 µl injections and 120 or 180 s spacing between injections. Experiments with the […]
(§4) instrument using 3-5 µM protein in the cell and 40-60 µM ligand in the syringe at 35°C, using 5 µl injections and 180 s spacing between injections, for 40 injections. Titrations were performed in 40 mM Na-phosphate, pH 7.5 100 mM NaCl, 1 mM DTT buffer except for GFP-HIF-1α and variants for which 25 mM Tris-HCl, 150 mM NaCl, 1mM DTT, pH 7.4 buffer was used. Data were analysed using NITPIC3 and fitted using SEDPHAT4 to a single binding site model (fixed 1:1 stoichiometry), with baseline and incompetent protein fraction as adjustable parameters. 68 % confidence intervals for the fitted values were determined using the automatic confidence interval search implemented in SEDPHAT. Figures were prepared using […]

In a further test the target is T2, p300 (Homo sapiens, UniProt Q09472).
T2 construct: GST (N, cleaved yes); made in house; host or cells: E. coli BL21 pLysS (pGEX-4T1-p300)
The experiment in a line: Global fitting of ITC titrations with ternary complex model: binary binding parameters. On the technique in general: In ITC the heat of successive injections is recorded.

Test [2] addresses T1, p300 (CH1 domain, residues 330–420). The experiment in a line: ITC of chemically synthesized HIF-1α, CITED2 and CITIF peptides binding to p300. The following applies: ITC, 35 °C, 40 mM sodium phosphate, pH 7.5, 100 mM NaCl, 1 mM DTT, 5 μM protein in cell, 60 μM ligand in syringe. The protocol: Raw ITC (upper) data and fitted thermogram (lower) (40 mM sodium phosphate, pH 7.5 100 mM NaCl, 1 mM DTT buffer using 5 μM protein in the cell and 60 μM ligand in the syringe at 35 °C) error bars represent the estimated integration errors; (b) Thermodynamic signatures for each interaction.
Figure S8 (a) Sequences of the truncated CITED2 peptides and isothermal titration […]
µM peptide in the syringe. All measurements were carried out 40 mM sodium phosphate, pH 7.5 100 mM NaCl, 1 mM DTT buffer at 35°C. Error bars represent the estimated integration […]
Table S2 Thermodynamic parameters for shortened CITED2 sequences. 68% confidence intervals for the fitting are shown in brackets. Data fitted to a single binding site model, fixed 1:1 stoichiometry with incompetent protein fraction as an adjustable parameter. […]
as §1, §2, §3, §4

Test [3] concerns the target T3, CITED2216-259 /p300 complex (Homo sapiens, UniProt Q09472).
T3 construct: GST (N, cleaved yes); made in house; host or cells: p300: E. coli BL21 pLysS (pGEX-4T1-p300); CITED2 peptide: chemical synthesis
The experiment in a line: Competition ITC: HIF-1α776-826 titrated to preformed CITED2216-259/p300 complex. It counts as binding. As to conditions: titrated to CITED2216-259/p300 complex. Here is the method: (§5) Figure S7Apparent KD fits for the competition ITC experiment using a competition interaction model. p300/ligand complexes were prepared by titrating the appropriate ligand first to p300 in the cell using 3-5 µM protein concentration, the titration stopped when it reached close to […]
(§6) (Table S5) Then it was titrated with the competitor ligand using 30-60 µM concentration in the syringe, 5 or 10 uL injections with 180-240 s spacing. Background titrations were performed without p300 in the cell and subtracted from the measurements. Apparent KD,app and ΔH app values data were fitted to a competition model (Fig. S17) in SEDPHAT. Error bars represent the estimated integration errors.
(1 picture or pasted object on this page, not shown here)
Table S1 Apparent KD values and thermodynamic parameters for competition ITC experiments derived from fitting the data to a competition model depicted in Fig. S17. confidence intervals of the binding parameters are shown in brackets. […]
as §1
Prior to ITC measurement p300 CH1 was dialysed or run on S75 column in the buffer used for titration, and the same buffer was used to dissolve the pure peptides. […]
37°C, using 2 µl injections and 120 or 180 s spacing between injections. Experiments with the […]
as §4
Competition ITC measurements
Competition ITC measurements were performed in Microcal VP ITC. […]

For test [4], the target named is T4, HIF-1α786-826/p300 complex (Homo sapiens, UniProt Q09472).
T4 construct: GST (N, cleaved yes); made in house; host or cells: p300: E. coli BL21 pLysS (pGEX-4T1-p300); HIF-1α peptide: chemical synthesis
The experiment in a line: Competition ITC: CITED2 peptide titrated to preformed p300/HIF-1α786–826 complex. It counts as binding. The following applies: titrated to HIF-1α786-826/p300 complex, fitted with fixed KD = 42.9 nM and ΔH = -25.8 kcal/mol for HIF-1α786-826, read-out: KD,app CITED2. The protocol: as §5, §6
(1 picture or pasted object on this page, not shown here) […]
instrument using 3-5 µM protein in the cell and 40-60 µM ligand in the syringe at 35°C, using 5 µl injections and 180 s spacing between injections, for 40 injections. […] Data were analysed using NITPIC3 and fitted using SEDPHAT4 to a single binding site model (fixed 1:1 stoichiometry), with baseline and incompetent protein fraction as adjustable parameters. 68 % confidence intervals for the fitted values were determined using the automatic confidence interval search implemented in SEDPHAT. […]

In another test the target is p300 CH1 (Homo sapiens) (UniProt Q09472). The experiment in a line: anisotropy. The following applies: cited from earlier work.
Test [5] has as its target GST-tagged p300 CH1 domain (residues 330–420) (UniProt Q09472). The experiment in a line: SEC; size exclusion chromatography of the GST fusion (protein characterization, Fig. S15). (In general: In gel filtration, larger molecules generally elute earlier.)
The target in test [6] is T5, p300 CH1 domain (residues 330–420) (UniProt Q09472 330-420).
T5 construct: p300 CH1 domain, residues 330–420; The cleavage of GST is said for the anisotropy control; also called p300 with the GST tag cleaved; source: recombinantly expressed as a fusion protein with GST, GST tag cleaved
The experiment in a line: ITC; peptide in the syringe, p300 in the cell (Fig. 4: 5 μM protein, 60 μM ligand); 40 mM sodium phosphate, pH 7.5, 100 mM NaCl, 1 mM DTT, 35 °C; single-site model, fixed 1:1 stoichiometry. The following applies: both partners purified.

Test [7] has as its target T5, p300 CH1 domain (residues 330–420). The experiment in a line: ITC; competition: CITED2 peptides titrated into the preformed p300/HIF-1α 776–826 complex (1.2–1.6 equivalents of HIF-1α); 40 mM sodium phosphate, pH 7.5, 100 mM NaCl, 1 mM DTT, 35 °C; competitive binding model; apparent. As to conditions: both partners purified.
In test [8] the target is T6, GST-p300 (GST-tagged p300 CH1 domain, residues 330-420) (human, UniProt Q09472 330-420).
T6 construct: human p300, CH1 domain (zinc finger, TAZ type 1), residues 330-420; For the fluorescence anisotropy experiments the GST cleavage step was omitted (D1:p17); source: E. coli (pGEX-6P-2 in Rosetta 2 or pGEX-4T-1 in BL21 pLysS), glutathione beads, eluted with glutathione, SEC
The experiment in a line: fluorescence polarisation; fluorescence anisotropy competition; 5 nM FAM-HIF786-826 as tracer, two-fold dilution series of the competitor from 10 µM over 24 points; 25 mM Tris-HCl, 150 mM NaCl, 1 mM DTT, pH 7.4; concentration of p300 not stated. The following applies: both partners purified. (In general: Fluorescence polarisation rises when a labelled molecule tumbles more slowly, as on binding a larger partner.)

Where [9] appears, read: 68% confidence interval in brackets.
[10] abbreviates: global fit 1 (CITED224-259 and HIF776-826 titrations).
Setting [11] is: global fit 2 (CITED216-269 and HIF776-826 titrations).
The mark [12] stands for this setting: global fit 3 (CITED2216-248 and HIF776-826 titrations).

T2 sequence (Q09472 330-420): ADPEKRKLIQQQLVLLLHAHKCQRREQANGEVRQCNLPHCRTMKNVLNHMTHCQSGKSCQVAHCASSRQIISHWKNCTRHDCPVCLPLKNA
T1 sequence (Q09472 330-420): as above
T5 sequence (Q09472 330-420): as above
T3 sequence (Q09472 330-420, one chain of several): as the sequence (Q09472 330-420) above
T6 sequence (Q09472 330-420): as above
T4 sequence (Q09472 330-420, one chain of several): as the sequence (Q09472 330-420) above

Regarding `CC[C@H](C)[C@H](NC(=O)[C@@H]1CCCN1C(=O)[C@H](C)NC(=O)[C@H](CC(N)=O)NC(=O)[C@@H](NC(=O)[C@H](CCC(=O)O)NC(=O)[C@H](CS)NC(=O)[C@H](CC(=O)O)NC(=O)[C@H](Cc1ccc(O)cc1)NC(=O)[C@H](CO)NC(=O)[C@@H](NC(=O)[C@H](CC(C)C)NC(=O)[C@H](CCC(N)=O)NC(=O)[C@@H]1CCCN1C(=O)[C@H](CC(C)C)NC(=O)CNC(=O)[C@H](CO)NC(=O)[C@H](CCC(=O)O)NC(=O)[C@H](CC(=O)O)NC(=O)[C@H](CCSC)NC(=O)[C@H](CO)NC(=O)[C@H](CCC(N)=O)NC(=O)CNC(=O)[C@H](CC(C)C)NC(=O)[C@H](CC(C)C)NC(=O)[C@H](CCCNC(=N)N)NC(=O)[C@H](CS)NC(=O)[C@H](C)NC(=O)[C@H](CC(C)C)NC(=O)[C@H](CC(=O)O)NC(=O)[C@H](CO)NC(=O)[C@H](CO)NC(=O)CNC(=O)[C@@H]1CCCN1C(=O)CN)[C@@H](C)O)C(C)C)C(=O)N[C@@H](CCC(N)=O)C(=O)NCC(=O)N[C@@H](CO)C(=O)N[C@@H](CCCNC(=N)N)C(=O)N[C@@H](CC(N)=O)C(=O)N[C@@H](CC(C)C)C(=O)N[C@@H](CC(C)C)C(=O)N[C@@H](CCC(N)=O)C(=O)NCC(=O)N[C@@H](CCC(=O)O)C(=O)N[C@@H](CCC(=O)O)C(=O)N[C@@H](CC(C)C)C(=O)N[C@@H](CC(C)C)C(=O)N[C@@H](CCCNC(=N)N)C(=O)N[C@@H](C)C(=O)N[C@@H](CC(C)C)C(=O)N[C@@H](CC(=O)O)C(=O)N[C@@H](CCC(N)=O)C(=O)N[C@H](C(=O)N[C@@H](CC(N)=O)C(=O)O)C(C)C` [HIF-1α776–826], the “ΔS, expressed peptides” value in test [1] was −39.2 cal mol^−1 K^−1. Further, in test [1] (setting [9]), the “ΔH, expressed peptides” value was -22.2 kcal/mol. Also, on p300 (setting [10]), the ΔH was -22.7 kcal/mol and the ΔS is -40.3 cal mol-1 K-1. On p300 (setting [11]), this molecule had a ΔH of -22.9 kcal/mol and a ΔS of -41.1 cal mol-1 K-1. At p300 (setting [12]), this molecule yielded a ΔH of -27.8 kcal/mol and a ΔS of -57.4 cal mol-1 K-1. Also, the “ΔS, synthetic peptides” value in test [2] is recorded as −41 cal mol^−1 K^−1. The “ΔH, synthetic peptides” value in test [2] (setting [9]) is -22.9 kcal/mol. Further, in test [3] (fixed KD = 26.3 nM for CITED2, treat with caution, small heat change, read-out: KD,app HIF-1α), the Kd was 695 nM. Besides, in test [3] (treat with caution), the “ΔHapp, HIF-1α” value is recorded as -26.37 kcal/mol and the “ΔSapp, HIF-1α” value was -57.4 cal/mol/K.
“Ac-DEEVLMSLVIEMGLDRIKELPELWLGQNEFDFMTDF-NH2 [CITED2_224–259]”: in test [4], the Kd came to 8.4 nM.
As for CITED2 216-269 (from UniProt Q99967), the Kd in the test with p300 CH1 (Homo sapiens) was 10 nM.
“GST-tagged p300 CH1 domain (residues 330–420) (from UniProt Q09472 330-420) (domain or fragment)” showed a stoichiometry N in test [5] of 2.
For HIF-1α 776-826 (from UniProt Q16665), the Kd in the test with p300 CH1 (Homo sapiens) was 10 nM.

B1: CITED2 224–248 (truncated CITED2) (peptide, UniProt Q99967 224-248, looked up)
peptide: DEEVLMSLVIEMGLDRIKELPELWL
In turn, B1 returned a Kd in [6] of 10400 nM.

B2: CITED2 216–248 (C-terminally truncated CITED2) (peptide, UniProt Q99967 216-248, looked up)
peptide: NVIDTDFIDEEVLMSLVIEMGLDRIKELPELWL
In test [6], B2 came in with a Kd of 303 nM. For the same molecule, the “KD,app (competition against the preformed p300/HIF-1α 776–826 complex)” value in [7] is 46.9 nM.

B3: HIF-1α786-826 (expressed, His10-GFP cleaved off) (peptide)
peptide: GPGSSMDESGLPQLTSYDCEVNAPIQGSRNLLQGEELLRALDQVN
notes: four residues (Gly-Pro-Gly-Ser) left from the PreScission protease site; source: E. coli Rosetta 2, from inclusion bodies, His-trap, on-column PreScission cleavage, RP-HPLC; not shown: GFP, N-terminal, cleaved
Consider B3, for which, in test [8], the IC50 was found to be 59 ± 6 nM.

What is called stoichiometry N is the number of molecules, sites or subunits per partner or assembly. For orientation: IC50 means the concentration at which inhibition is half-maximal.

The record behind these values is paper PMC9092470, “Understanding p300-transcription factor interactions using sequence variation and hybridization†” (RSC Chemical Biology, 2022).
